Test results reported in patent publication EP0908183A1, “Dehydroepiandrosterone or derivatives thereof for increasing the content of hyaluronic acid in skin” (INSTITUTE FOR ADVANCED SKIN RESEARCH INC., priority 1997, dated 1999).

Columns and labels:
[1] = acute toxicity tests with mice; settings: mouse, in vivo
Excerpt: It was confirmed that dehydroepiandrosterone (DHEA), which is used as an active ingredient in the present invention, was effective in increasing the hyaluronic acid content of skin to prevent and treat the symptoms of aging of skin. It was also confirmed that dehydroepiandrosterone was effective in inhibiting scar formation during the healing of an injury to skin. In addition, unlike retinoic acid which is teratogenic and estrogens that induce cardiovascular disorders, DHEA in its stable sulfate form has been commercialized as a drug that aids the process of childbirth and is used in clinical applications.

[2] = tested on: content of hyaluronic acid in skin; assay: content of hyaluronic acid in skin of aging mice after application to dorsal skin; format: in vivo; settings: aging mice Balb/c; for efficacy in increasing the content of hyaluronic acid in skin when combined with alimidex: DHEA administered simultaneously with aromatase inhibitor alimidex
Excerpt: Dehydroepiandrosterone (DHEA) as an ethanol solution at a concentration of 10^-1M was applied to skin of the dorsal part of aging mice (Balb/c, 48 weeks old, in each group consisting of 6 animals) for 5 weeks.
To evaluate the reproducibility of its efficacy, DHEA was applied in various concentrations of 10^-1, 10^-2 and 10^-3M to aging mice (Balb/c, 53 weeks, in each group consisting of 8 animals). Further, in order to see whether DHEA became effective only after it was metabolized to estrodiol, alimidex that inhibited aromatase, which is an enzyme for causing a conversion to estrogens, was administered simultaneously with DHEA. […] This means the concentration of DHEA can be lowered to a tenth of the initial value.

| SMILES | LD50 ([1]; iv, injected intravenously) | LD50 ([1]; po, peroral) | LD50 ([1]; sc, injected subcutaneously) | content of hyaluronic acid in skin ([2]; 10^-1M, 53 weeks, reproducibility experiment, Fig. 2) | content of hyaluronic acid in skin ([2]; 10^-2M, 53 weeks, reproducibility experiment, Fig. 2) | efficacy in increasing the content of hyaluronic acid in skin when combined with alimidex ([2]; 53 weeks, Fig. 2) | efficacy in increasing the content of hyaluronic acid in skin when combined with alimidex ([2]; 53 weeks, Fig. 2, listed as dehydroepiandrosterone) | content of hyaluronic acid in skin ([2]; ethanol solution 10^-1M applied to dorsal skin for 5 weeks, 48 weeks old, vs control group, Fig. 1) | content of hyaluronic acid in skin ([2]; aromatase inhibitor applied alone, 53 weeks, Fig. 2) |
| --- | --- | --- | --- | --- | --- | --- | --- | --- | --- |
| C[C@]12CC[C@H](O)CC1=CC[C@@H]1[C@@H]2CC[C@]2(C)C(=O)CC[C@@H]12 [DHEA, dehydroepiandrosterone] | 274 mg/kg | ≥ 10000 mg/kg | 899 mg/kg | statistically significant increase | statistically significant increase | not suppressed | not lowered | increased the content of hyaluronic acid in skin with a statistically significant difference from the control group | – |
| CC(C)(C#N)c1cc(Cn2cncn2)cc(C(C)(C)C#N)c1 [alimidex, reference compound] | – | – | – | – | – | – | – | – | no ability to increase the content of hyaluronic acid |
